Key:
Format in all cases: in vivo, BALB/c mice
CT26 cells [1] = experiment: Pulmonary metastasis model (intravenous CT26), survival; settings: 5×10^5 CT26 i.v. on day 10; 50 μg AH1 in FIA s.c. day 0; p144 50 μg i.p. alternate days, days 4-20 or 10-20
From the text: It is speculated that the neutralization of TGF-β1, once the immune response has been induced, could have a beneficial effect on the evolution thereof.
It is known from previous experience that immunization with only DTc AH1 produced a certain delay in the appearance of tumours after the intravenous administration of CT26 cells. For this reason, in a survival experiment, the inclusion of p144 was compared at different times after immunization with AH1. Thus, the animals in group (i) just received the administration of CT26 cells, the animal groups (ii), (iii) and (iv) were immunized on day 0 by subcutaneous route with 50 μg of AH1 in FIA (Freund's incomplete adjuvant) and they were then administered 5×10^5 CT26 cells by intravenous route on day 10. Group (iii) further received 50 μg of p144 in 500 μl of PS (physiological serum) by intraperitoneal route on alternate days between days 4 and 20. Group (iv), as with group (iii), received 50 μg of p144 in 500 μl of PS by intraperitoneal route on alternate days, only between days 10 and 20.

CT26 cells [2] = experiment: Protection against growth of CT26 cells after immunization with AH1 + LVQ mixtures; settings: mice protected/total; immunization mixtures in Freund's incomplete adjuvant; 500,000 CT26 cells subcutaneous
From the text: […] is a peptide which is presented by the MHC-II on the surface of the presenting cell, and a DTc is a peptide which is presented by MHC-I on the surface of the presenting cell and in tumour cells. It is known that the joint immunization of a DTc (AH1 peptide) and a DTh (LVQ peptide), both peptides coming from the gp70 protein of the tumour antigen expressed by CT26 cells, was capable of protecting against the subcutaneous growth of 500,000 CT26 tumour cells. Since TGF-β1 is important in the immune response induction process, we wanted to study the effect of peptide p144 on the induction of the response responsible for protection against the growth of CT26 cells. As is indicated in Table 1, three groups of BALB/c mice were immunized with the following mixtures of Freund's incomplete adjuvant: (i) with AH1 LVQ, (ii) with AH1+LVQ+p144 and (iii) just with Freund's incomplete adjuvant.

CT26 cells [3] = experiment: Subcutaneous CT26 tumour model after AH1 immunization; settings: 50 μg AH1 day 0; 5×10^5 CT26 s.c. day 10; day 10-30 PS or 50 μg p144 every 48 hours i.p.
Protocol: Next, the effect of p144 was studied on a tumour progression model which was less aggressive than the intravenous administration of CT26. In this new model, mice were immunized with 50 μg of AH1 on day 0 and ten days later they were administered 5×10^5 CT26 cells by subcutaneous route. Furthermore, with the aim of testing the effect of blocking TGF-β1 on protection against CT26 tumour cells, another two groups of mice (groups 2 and 3) were treated on alternate days by intraperitoneal route between days 10-30 with 50 μg of p144.

RAd-LacZ = experiment: Induction of anti-RAd LacZ antibodies (ELISA) after immunization with heat-inactivated adenovirus
Protocol: To analyse the immunomodulating effect of peptide p144 on the humoral response, female BALB/c mice (Harlan, Barcelona) were used, of between 6 and 8 weeks old. For the induction of specific antibodies, recombinant adenovirus (RAd-LacZ) inactivated by heat in a bath at 100° C. for 10 minutes was inoculated.
Three mice were immunized per group, by the intraperitoneal of a mixture of 200 μl which contained 1×10^8 pfu of the inactivated RAd-LacZ adenovirus, physiological serum (PS) or with […] of peptide p144, all emulsified in Freund's complete adjuvant (FCA) in a 1:1 volumetric ratio as indicated in table M4. Thirty days after the first immunization, the animals were reimmunized with the same mixture, but emulsified in Freund's incomplete adjuvant (FIA). Blood samples were taken from the retroorbital plexus on days 15 and 45 to quantify the anti-adenovirus antibodies generated in each animal.
In order to study the possible induction of antigen intolerance in the mice treated with p144, on day 50 after the I^st injection, the mice were inoculated intravenously with 4×10^8 pfu of active RAd-LacZ in 100 μl of RPMI-1640, including a new group of mice (cont iv), which had only received the intravenous dose of active LacZ adenovirus. Blood samples were taken after 7 days in all groups. Next, the animals were sacrificed to include liver samples in OCT® (Tissue-Tek®, SAKURA, the Netherlands) to the subsequent evaluation of LacZ expression in the liver.
The detection of antibodies in serum against RAd-LacZ was performed by ELISA assays using Maxisorp® flat-bottomed 96-well plates (Nunc, Roskilde, Denmark), based on the streptavidin-biotin system using 2,2′-azino-bis-3-ethylbenzthiazoline-6-sulphonic acid (ABTS) as developer. The plates were incubated throughout the night at 4° C. with 50 μl per well of a solution of 75 μl of RAd-LacZ 10^10 pfu/ml in 10 ml 0.1 M Na2CO3 (pH=10.5). […] 100 μl per well were added and after one hour the plate was read at 405 nm in a Multiskan Plus MKII reader (Labsystem, Helsinki, Finland).

## p144: peptide inhibiting TGF-β1 whose amino acid sequence corresponds to SEQ ID NO: 1 (TSLDASIIWAMMQN; Synthetic Construct from human TGB-Beta1 type III receptor.Domain730-743)
CT26 cells [1]
  survival / mortality: reinforces the survival effect
CT26 cells [2]
  Protection level against the growth of CT26 cells: negative effect on protection
CT26 cells [3]
  Animals protected on day 50: 4/10
RAd-LacZ; 7 days after 4×10^8 pfu RAd LacZact i.v., no p144 at challenge, versus group immunized without p144
  antibody titer after intravenous infection with active RAd LacZ: approximately equalled
RAd-LacZ; day 15, RAd LacZinact in presence or absence of p144, ELISA
  anti-RAd LacZ antibody production after first immunization: no quantifiable effect
RAd-LacZ; p144 50 μg in immunization mixture, versus inactivated RAd LacZ only
  antibody titer against RAd LacZ after second immunization: clearly lower

From US20090263410A1, “USE OF TGF-B1 INHIBITOR PEPTIDES IN THE PREPARATION OF AN IMMUNE RESPONSE MODULATING AGENT” (Proyecto De Biomedicina Cima, S.L., priority 2005, published 2009)
